Target: JAK1 (Homo sapiens (Human), UniProt P23458)
Assay: Analysis of JAK1 activity inhibition ability (ADP-Glo Kinase Assay)
Type: biochemical
Details: JAK1 enzyme, ADP-Glo luminescence, ATP 250 uM, IRS-itide substrate, 30° C. 40 minutes; read-out: IC50
Outline: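 ADP-Glo luminescence read-out of ADP production, with IC50 taken as the concentration halving JAK1 activity relative to control. Enzyme was incubated 40 min at 30 °C with compound, IRS-itide (40 ng/mL) and ATP (250 uM), concentrations as prepared in pH 7.5 Tris-HCl/MgCl2/BSA/DTT buffer.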

Chain of JAK1 (P23458 whole entry): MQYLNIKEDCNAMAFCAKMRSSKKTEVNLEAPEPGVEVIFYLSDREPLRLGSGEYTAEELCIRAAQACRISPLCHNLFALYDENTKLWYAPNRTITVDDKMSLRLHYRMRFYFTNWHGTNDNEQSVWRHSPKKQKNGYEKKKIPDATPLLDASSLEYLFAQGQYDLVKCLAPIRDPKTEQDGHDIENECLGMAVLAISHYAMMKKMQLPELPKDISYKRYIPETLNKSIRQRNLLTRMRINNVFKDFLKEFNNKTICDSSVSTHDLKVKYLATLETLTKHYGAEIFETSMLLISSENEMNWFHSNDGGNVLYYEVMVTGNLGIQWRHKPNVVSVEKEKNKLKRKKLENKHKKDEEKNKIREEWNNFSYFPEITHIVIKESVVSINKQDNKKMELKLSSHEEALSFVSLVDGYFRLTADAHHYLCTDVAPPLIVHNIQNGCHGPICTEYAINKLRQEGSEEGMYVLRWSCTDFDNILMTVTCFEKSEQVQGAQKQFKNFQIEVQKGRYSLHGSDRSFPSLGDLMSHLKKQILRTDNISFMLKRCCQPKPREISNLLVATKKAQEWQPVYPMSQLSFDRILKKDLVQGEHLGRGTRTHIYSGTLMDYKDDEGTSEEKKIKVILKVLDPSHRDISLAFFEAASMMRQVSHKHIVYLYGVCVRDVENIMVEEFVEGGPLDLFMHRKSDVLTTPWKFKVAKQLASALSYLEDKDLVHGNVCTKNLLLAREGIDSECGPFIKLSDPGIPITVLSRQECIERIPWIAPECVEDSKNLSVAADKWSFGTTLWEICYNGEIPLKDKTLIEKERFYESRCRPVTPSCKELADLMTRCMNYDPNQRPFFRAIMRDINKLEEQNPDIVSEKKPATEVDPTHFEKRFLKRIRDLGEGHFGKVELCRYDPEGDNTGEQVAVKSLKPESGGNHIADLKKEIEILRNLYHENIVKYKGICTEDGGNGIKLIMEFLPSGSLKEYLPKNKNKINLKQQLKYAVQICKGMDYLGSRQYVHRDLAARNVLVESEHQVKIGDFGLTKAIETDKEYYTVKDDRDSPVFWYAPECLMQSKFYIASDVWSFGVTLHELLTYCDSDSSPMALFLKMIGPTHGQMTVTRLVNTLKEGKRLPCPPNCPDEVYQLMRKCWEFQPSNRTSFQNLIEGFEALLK

Compound | IC50 [nM]
Cc1cc(C(=O)N2CCOCC2)ccc1-c1cc(NC(=O)C2CC2)nc2[nH]ccc12 [Example 522, N-(4-(2-methyl-4-(morpholine-4-carbonyl)phenyl)-1H-pyrrolo[2,3-b]pyridin-6-yl)cyclopropanecarboxamide] | 20 to 200
CC1CN(C(=O)c2cc(Cl)nc(Cl)c2)CC=C1c1cc(NC(=O)C2CC2)nc2[nH]ccc12 (stereo not shown) [Example 372, N-(4-(1-(2,6-dichloroisonicotinoyl)-3-methyl-1,2,3,6-tetrahydropyridin-4-yl)-1H-pyrrolo[2,3-b]pyridin-6-yl)cyclopropanecarboxamide] | 20 to 200
O=C(NCc1ccc(-c2cc(NC(=O)C3CC3)nc3[nH]ccc23)cc1)NCC(F)(F)F [Example 581, N-(4-(4-((3-(2,2,2-trifluoroethyl)ureido)methyl)phenyl)-1H-pyrrolo[2,3-b]pyridin-6-yl)cyclopropanecarboxamide] | 20 to 200
CCN(C)S(=O)(=O)Nc1ccc(-c2cc(NC(=O)C3CC3)nc3[nH]ccc23)cc1 [Example 215, N-(4-(4-((N-ethyl-N-methylsulfamoyl)amino)phenyl)-1H-pyrrolo[2,3-b]pyridin-6-yl)cyclopropanecarboxamide] | < 20
CCS(=O)(=O)Nc1ccc(-c2cc(NC(=O)C3CC3)nc3[nH]ccc23)c(C(=O)OC)c1 [Example 140, methyl 2-(6-(cyclopropanecarboxamido)-1H-pyrrolo[2,3-b]pyridin-4-yl)-5-(ethylsulfonamido)benzoate] | > 200
CCC(CC)S(=O)(=O)Nc1ccc(-c2cc(NC(=O)C3CC3)nc3[nH]ccc23)cc1 [Example 42, N-(4-(4-((1-ethylpropyl)sulfonamido)phenyl)-1H-pyrrolo[2,3-b]pyridin-6-yl)cyclopropanecarboxamide] | < 20
N#Cc1ccc(S(=O)(=O)Nc2ccc(-c3nc(NC(=O)C4CC4)nc4[nH]ccc34)cc2)cn1 [Example 197, N-(4-(4-((6-cyanopyridine)-3-sulfonamido)phenyl)-7H-pyrrolo[2,3-d]pyrimidin-2-yl)cyclopropanecarboxamide] | > 200
CCS(=O)(=O)Nc1ccc(-c2cc(NC(=O)C(C)C)nc3[nH]ccc23)cc1F [Example 711, N-(4-(4-(ethylsulfonamido)-3-fluorophenyl)-1H-pyrrolo[2,3-b]pyridin-6-yl)isobutyramide] | > 200
CCS(=O)(=O)NC1CCC(c2cc(NC(=O)C3CC3)nc3[nH]ccc23)CC1 (stereo not shown) [Example 645, N-(4-(4-(ethylsulfonamido)cyclohexyl)-1H-pyrrolo[2,3-b]pyridin-6-yl)cyclopropanecarboxamide] | 20 to 200
CCCS(=O)(=O)Oc1ccc(-c2cc(NC(=O)C3CC3)nc3[nH]ccc23)cc1 [Example 631, 4-(6-(cyclopropanecarboxamido)-1H-pyrrolo[2,3-b]pyridin-4-yl)phenyl propane-1-sulfonate] | 20 to 200
CNS(=O)(=O)Cc1ccc(-c2cc(NC(=O)C3CC3)nc3[nH]ccc23)cc1 [Example 533, N-(4-(4-((N-methylsulfamoyl)methyl)phenyl)-1H-pyrrolo[2,3-b]pyridin-6-yl)cyclopropanecarboxamide] | 20 to 200
CCCCNC(=S)Nc1ccc(-c2cc(NC(=O)C3CC3)nc3[nH]ccc23)cc1 [Example 463, N-(4-(4-(3-butylthioureido)phenyl)-1H-pyrrolo[2,3-b]pyridin-6-yl)cyclopropanecarboxamide] | > 200
CS(=O)(=O)Nc1ccc(-c2cc(NC(=O)C3CC3)nc3[nH]ccc23)cc1-c1ccccc1 [Example 129, N-(4-(6-(methylsulfonamido)-[1,1′-biphenyl]-3-yl)-1H-pyrrolo[2,3-b]pyridin-6-yl)cyclopropanecarboxamide] | > 200
O=C(Nc1cc(-c2ccc(NS(=O)(=O)CC3CCOC3)cc2)c2cc[nH]c2n1)C1CC1 (stereo not shown) [Example 54, N-(4-(4-(((tetrahydrofuran-3-yl)methyl)sulfonamido)phenyl)-1H-pyrrolo[2,3-b]pyridin-6-yl)cyclopropanecarboxamide] | < 20
O=C(Nc1nc(-c2ccc(NS(=O)(=O)C3CCCCC3)cc2)c2cc[nH]c2n1)C1CC1 [Example 183, N-(4-(4-(cyclohexanesulfonamido)phenyl)-7H-pyrrolo[2,3-d]pyrimidin-2-yl)cyclopropanecarboxamide] | < 20
COc1ccc(CC(=O)N2CC=C(c3cc(NC(=O)C4CC4)nc4[nH]ccc34)C(C)C2)cc1 (stereo not shown) [Example 341, N-(4-(1-(2-(4-methoxyphenyl)acetyl)-3-methyl-1,2,3,6-tetrahydropyridin-4-yl)-1H-pyrrolo[2,3-b]pyridin-6-yl)cyclopropanecarboxamide] | > 200
Cc1cc(C(=O)NCC(F)(F)F)ccc1-c1cc(NC(=O)C2CC2)nc2[nH]ccc12 [Example 525, 4-(6-(cyclopropanecarboxamido)-1H-pyrrolo[2,3-b]pyridin-4-yl)-3-methyl-N-(2,2,2-trifluoroethyl)benzamide] | 20 to 200
O=C(Nc1nc(-c2ccc(NCCCO)cc2)c2cc[nH]c2n1)C1CC1 [Example 476, N-(4-(4-((3-hydroxypropyl)amino)phenyl)-7H-pyrrolo[2,3-d]pyrimidin-2-yl)cyclopropanecarboxamide] | > 200
N#CCC1(N2CC=C(c3cc(NC(=O)C4CC4)nc4[nH]ccc34)CC2)CN(C(=O)NCC(F)(F)F)C1 [Example 624, 3-(cyanomethyl)-3-(4-(6-(cyclopropanecarboxamido)-1H-pyrrolo[2,3-b]pyridin-4-yl)-3,6-dihydropyridin-1 (2H)-yl)-N-(2,2,2-trifluoroethyl)azetidine-1-carboxamide] | 20 to 200
N#CCCN1CC=C(c2cc(NC(=O)C3CC3)nc3[nH]ccc23)CC1 [Example 486, N-(4-(1-(2-cyanoethyl)-1,2,3,6-tetrahydropyridin-4-yl)-1H-pyrrolo[2,3-b]pyridin-6-yl)cyclopropanecarboxamide] | 20 to 200
CCS(=O)(=O)Nc1ccc(-c2nc(NC(=O)C3CC3)nc3[nH]ccc23)cc1F [Example 202, N-(4-(4-(ethylsulfonamido)-3-fluorophenyl)-7H-pyrrolo[2,3-d]pyrimidin-2-yl)cyclopropanecarboxamide] | 20 to 200
O=C(CCC(F)(F)F)NC1CC=C(c2cc(NC(=O)C3CC3)nc3[nH]ccc23)CC1 (stereo not shown) [Example 248, N-(4-(4-(4,4,4-trifluorobutanamido)cyclohex-1-en-1-yl)-1H-pyrrolo[2,3-b]pyridin-6-yl)cyclopropanecarboxamide] | > 200
N#CC1(CS(=O)(=O)Nc2ccc(-c3cc(NC(=O)C4CC4)nc4[nH]ccc34)cc2F)CC1 [Example 85, N-(4-(4-(((1-cyanocyclopropyl)methyl)sulfonamido)-3-fluorophenyl)-1H-pyrrolo[2,3-b]pyridin-6-yl)cyclopropanecarboxamide] | < 20
O=C(Nc1cc(-c2ccc(NS(=O)(=O)c3ccc(F)c(F)c3)cc2)c2cc[nH]c2n1)C1CC1 [Example 2, N-(4-(4-((3,4-difluorophenyl)sulfonamido)phenyl)-1H-pyrrolo[2,3-b]pyridin-6-yl)cyclopropanecarboxamide] | < 20
COc1ccc(C(=O)N2CC=C(c3cc(NC(=O)C4CC4)nc4[nH]ccc34)C(C)C2)c(OC)c1 (stereo not shown) [Example 356, N-(4-(1-(2,4-dimethoxybenzoyl)-3-methyl-1,2,3,6-tetrahydropyridin-4-yl)-1H-pyrrolo[2,3-b]pyridin-6-yl)cyclopropanecarboxamide] | > 200
